# From patent publication US11352363B1, “Spiropyrrolidine derived antiviral agents” (Enanta Pharmaceuticals, Inc., priority 2020, dated 2022)
# Like-named read-outs stand apart in the source and are kept apart here.
# Target: SARS-CoV-2 3CL-protease (Severe acute respiratory syndrome coronavirus 2 (2019-nCoV) (SARS-CoV-2), UniProt P0DTD1)
# Experiment: SARS-CoV-2 3C-like (3CL) protease fluorescence assay (FRET)
# Format: biochemical
SMILES,IC50 (read-out: FRET IC50) [µM],further results
CC(C)C[C@H](NC(=O)OCc1ccccc1)C(=O)N1C[C@]2(C[C@H]1C#N)C(=O)Nc1ccccc12 [Compound 1],0.1 to 1,
N#C[C@@H]1C[C@@]2(CN1C(=O)[C@H](CC1CCC1)NC(=O)OCc1ccccc1)C(=O)Nc1ccccc12 [Compound 2],< 0.1,
CC(C)(C)[C@H](NC(=O)OCc1ccccc1)C(=O)N1C[C@]2(C[C@H]1C#N)C(=O)Nc1ccccc12 [Compound 3],> 1,
N#C[C@@H]1C[C@@]2(CN1C(=O)[C@H](CC1CC1)NC(=O)OCc1ccccc1)C(=O)Nc1ccccc12 [Compound 4],< 0.1,
CC(C)(C)C[C@H](NC(=O)OCc1ccccc1)C(=O)N1C[C@]2(C[C@H]1C#N)C(=O)Nc1ccccc12 [Compound 5],< 0.1,
CC(OC(C)(C)C)[C@H](NC(=O)OCc1ccccc1)C(=O)N1C[C@]2(C[C@H]1C#N)C(=O)Nc1ccccc12 (stereo partly shown) [Compound 6],,IC50: > 1 µM
CC(C)(F)C[C@H](NC(=O)OCc1ccccc1)C(=O)N1C[C@]2(C[C@H]1C#N)C(=O)Nc1ccccc12 [Compound 7],< 0.1,
CC(C)C[C@H](NC(=O)OCC1(c2ccccc2)CC1)C(=O)N1C[C@]2(C[C@H]1C#N)C(=O)Nc1ccccc12 [Compound 8],< 0.1,
CC(C)C[C@H](NC(=O)OC(C)(C)c1cccc(Cl)c1)C(=O)N1C[C@]2(C[C@H]1C#N)C(=O)Nc1ccccc12 [Compound 9],0.1 to 1,
CC(C)(C)OC[C@H](NC(=O)OCc1ccccc1)C(=O)N1C[C@]2(C[C@H]1C#N)C(=O)Nc1ccccc12 [Compound 10],0.1 to 1,
COc1cccc2[nH]c(C(=O)N[C@@H](CC(C)C)C(=O)N3C[C@]4(C[C@H]3C#N)C(=O)Nc3ccccc34)cc12 [Compound 11],< 0.1,
COc1cccc2[nH]c(C(=O)N[C@H](CC(C)C)C(=O)N3C[C@]4(C[C@H]3C#N)C(=O)Nc3ccccc34)cc12 [Compound 12],> 1,
COc1cccc2[nH]c(C(=O)N[C@@H](CC3CCCCC3)C(=O)N3C[C@]4(C[C@H]3C#N)C(=O)Nc3ccccc34)cc12 [Compound 13],< 0.1,
COc1cccc2[nH]c(C(=O)N[C@H](CC3CCCCC3)C(=O)N3C[C@]4(C[C@H]3C#N)C(=O)Nc3ccccc34)cc12 [Compound 14],0.1 to 1,
COc1cccc2[nH]c(C(=O)N[C@@H](CC(C)(C)C)C(=O)N3C[C@]4(C[C@H]3C#N)C(=O)Nc3ccccc34)cc12 [Compound 15],< 0.1,
COc1cccc2[nH]c(C(=O)N[C@H](CC(C)(C)C)C(=O)N3C[C@]4(C[C@H]3C#N)C(=O)Nc3ccccc34)cc12 [Compound 16],0.1 to 1,
COc1cccc2[nH]c(C(=O)N[C@@H](CC3CCC3)C(=O)N3C[C@]4(C[C@H]3C#N)C(=O)Nc3ccccc34)cc12 [Compound 17],< 0.1,
CC(C)(C)[C@H](NC(=O)c1cc2c(F)cccc2[nH]1)C(=O)N1C[C@]2(C[C@H]1C#N)C(=O)Nc1ccccc12 [Compound 18],> 1,
COc1cccc2[nH]c(C(=O)N[C@@H](CC3CC3)C(=O)N3C[C@]4(C[C@H]3C#N)C(=O)Nc3ccccc34)cc12 [Compound 19],< 0.1,
CC(C)(C)C[C@H](NC(=O)c1cc2c(F)c(F)ccc2[nH]1)C(=O)N1C[C@]2(C[C@H]1C#N)C(=O)Nc1ccccc12 [Compound 20],< 0.1,
COc1cccc2[nH]c(C(=O)N[C@H](C(=O)N3C[C@]4(C[C@H]3C#N)C(=O)Nc3ccccc34)C(C)OC(C)(C)C)cc12 (stereo partly shown) [Compound 22],,IC50: 0.1 to 1 µM
COc1cccc2[nH]c(C(=O)N[C@@H](CC(C)C)C(=O)N3C[C@]4(C[C@H]3C=O)C(=O)Nc3ccccc34)cc12 [Compound 23],< 0.1,
CC(C)C[C@H](NC(=O)c1cc2c(F)cccc2[nH]1)C(=O)N1C[C@]2(C[C@H]1C=O)C(=O)Nc1ccccc12 [Compound 25],< 0.1,
COc1cc(C#N)cc2[nH]c(C(=O)N[C@@H](CC(C)C)C(=O)N3C[C@]4(C[C@H]3C#N)C(=O)Nc3ccccc34)cc12 [Compound 26],,"IC50 (recombinant SARS-CoV-2 3CL-protease 10 nM, 30 min preincubation, run in duplicate, read-out: FRET IC50): 0.1 to 1 µM"
CC(C)C[C@H](NC(=O)c1cc2c(F)cccc2[nH]1)C(=O)N1C[C@]2(C[C@H]1C#N)C(=O)Nc1ccccc12 [Compound 27],< 0.1,
